The values that follow come from patent US9067881B2, “4-tolyl-ethynyl-octahydro-indole-1-ester derivatives” (NOVARTIS AG, priority 2011, dated 2015).

≈ marks a conversion by molar mass, not a printed value.

The target of one data set is T1, human mGluR5 (Homo sapiens, UniProt P41594).
T1 construct: expressed in transfected cells
As to the kind of experiment: In-vitro activity of mGluR5 antagonists (inhibition of agonist induced elevation of intracellular Ca2+ or inositol phosphate turnover at recombinant human mGluR5). Format: cell-based. To be noted: recombinant human mGluR5, antagonism.

Data set [1] can be described thus: Solubility in Cl free phosphate buffer pH 6.8. Format: physicochemical. The settings on record: aqueous buffer; Cl free phosphate buffer (0.067 M) pH 6.8.
Data set [2] can be described thus: In-vitro clearance in rat liver microsomes (metabolic stability, compound depletion).
Data set [3] can be described thus: In-vitro clearance in human liver microsomes (metabolic stability, compound depletion).
For data set [4] the following is noted: microsomes.
For data set [5] the following is noted: microsomes. The source holds these as a separate data set.

T1 sequence (P41594 21-1180 isoform P41594-2 limits assumed): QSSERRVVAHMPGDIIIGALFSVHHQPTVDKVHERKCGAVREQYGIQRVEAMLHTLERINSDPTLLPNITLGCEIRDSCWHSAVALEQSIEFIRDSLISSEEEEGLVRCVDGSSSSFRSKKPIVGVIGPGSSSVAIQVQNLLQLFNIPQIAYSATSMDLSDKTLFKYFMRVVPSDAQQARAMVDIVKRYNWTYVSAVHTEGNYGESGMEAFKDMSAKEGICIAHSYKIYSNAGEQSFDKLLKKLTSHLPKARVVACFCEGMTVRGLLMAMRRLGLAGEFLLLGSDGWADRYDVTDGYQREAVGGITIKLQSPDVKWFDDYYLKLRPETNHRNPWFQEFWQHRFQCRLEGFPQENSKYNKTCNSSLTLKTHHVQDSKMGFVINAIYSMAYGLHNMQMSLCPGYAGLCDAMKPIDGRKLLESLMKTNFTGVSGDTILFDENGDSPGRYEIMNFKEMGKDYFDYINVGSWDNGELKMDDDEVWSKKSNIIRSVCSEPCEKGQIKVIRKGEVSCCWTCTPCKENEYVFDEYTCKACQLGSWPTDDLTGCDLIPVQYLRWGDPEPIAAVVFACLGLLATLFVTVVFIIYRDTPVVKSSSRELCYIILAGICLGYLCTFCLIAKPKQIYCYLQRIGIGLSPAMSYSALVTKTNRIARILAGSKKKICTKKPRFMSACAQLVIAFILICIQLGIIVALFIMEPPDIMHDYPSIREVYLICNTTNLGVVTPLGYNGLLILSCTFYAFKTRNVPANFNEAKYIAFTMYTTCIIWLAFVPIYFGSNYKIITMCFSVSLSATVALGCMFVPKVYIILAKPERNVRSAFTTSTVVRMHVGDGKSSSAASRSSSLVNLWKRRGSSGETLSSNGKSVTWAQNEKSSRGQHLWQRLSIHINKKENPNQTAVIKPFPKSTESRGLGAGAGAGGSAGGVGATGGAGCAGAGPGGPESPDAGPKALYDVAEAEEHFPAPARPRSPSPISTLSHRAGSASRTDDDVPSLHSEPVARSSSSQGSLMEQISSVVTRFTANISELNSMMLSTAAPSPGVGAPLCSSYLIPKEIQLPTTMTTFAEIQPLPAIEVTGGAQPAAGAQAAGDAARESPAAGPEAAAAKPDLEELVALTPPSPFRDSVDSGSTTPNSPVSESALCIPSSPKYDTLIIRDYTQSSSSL

As a reminder, the IC50 is the point on the concentration scale where inhibition reaches its midpoint. As for `CCOC(=O)N1CC[C@@H]2[C@H]1CCC[C@@]2(O)C#Cc1cccc(C)c1` [Example 2.0], the IC50 on human mGluR5 was found to be 42 nM.
As usually defined, the solubility is how much of the substance goes into solution per volume. The microsomal CLint is the capacity of the preparation to metabolise the compound, expressed as a volume cleared per time. A lower microsomal CLint goes with greater metabolic stability. In data set [1], `COC(=O)N1CC[C@@H]2[C@H]1CCC[C@]2(C#Cc1cccc(C)c1)OC(=O)CN1CCOCC1` [Example 26, (3aR,4S,7aR)-4-(2-Morpholin-4-yl-acetoxy)-4-m-tolylethynyl-octahydro-indole-1-carboxylic acid methyl ester] gave a solubility of 138 µg/mL (≈ 313 µM). The intrinsic metabolic clearance (microsomal CLint) at 1 μM in data set [2] amounted to 533 µL/min/mg; in data set [3], 770 µL/min/mg.
“(3aR,4S,7aR)-4-((S,R)-2-Amino-3-methyl-butyryloxy)-4-m-tolylethynyl-octahydro-indole-1-carboxylic acid methyl ester [Example 4]”: the “CL (rat)” value in data set [4] stood at 478 µL/min/mg. Moreover, in data set [5], the “CL (human)” value amounted to 630 µL/min/mg.
In data set [1], `COC(=O)N1CC[C@@H]2[C@H]1CCC[C@]2(C#Cc1cccc(C)c1)OC(=O)CCN1CCCC1` [Example 29, (3aR,4S,7aR)-4-(3-Pyrrolidin-1-yl-propionyloxy)-4-m-tolylethynyl-octahydro-indole-1-carboxylic acid methyl ester] yielded a solubility of 439 µg/mL (≈ 1000 µM). The microsomal CLint at 1 μM in data set [2] was found to be 730 µL/min/mg; in data set [3] it was 660 µL/min/mg.
Turning to `COC(=O)N1CC[C@@H]2[C@H]1CCC[C@]2(C#Cc1cccc(C)c1)OC(=O)CCN1CCOCC1` [Example 27, (3aR,4S,7aR)-4-(3-Morpholin-4-yl-propionyloxy)-4-m-tolylethynyl-octahydro-indole-1-carboxylic acid methyl ester], the solubility in data set [1] came out at 108 µg/mL (≈ 238 µM). Moreover, the microsomal CLint at 1 μM was 533 µL/min/mg in data set [2] and 94 µL/min/mg in data set [3].
On to `COC(=O)N1CC[C@@H]2[C@H]1CCC[C@@]2(O)C#Cc1cccc(C)c1` [Example 1.0, 4-hydroxy-4-m-tolylethynyl-octahydro-indole-1-carboxylic acid methyl ester, reference compound], for which the solubility in data set [1] was 51 µg/mL (≈ 163 µM). Moreover, the microsomal CLint at 1 μM in data set [2] was 277 µL/min/mg; in data set [3] it was 113 µL/min/mg.
Taken in the same sequence, the figures for `COC(=O)N1CC[C@@H]2[C@H]1CCC[C@]2(C#Cc1cccc(C)c1)OC(=O)CN` [Example 8, (3aR,4S,7aR)-4-(2-Amino-acetoxy)-4-m-tolylethynyl-octahydro-indole-1-carboxylic acid methyl ester] were 125 µg/mL (≈ 337 µM), 87 µL/min/mg and 187 µL/min/mg.
Taken in the same sequence, the figures for `CCCCCCCCCCCCCC(=O)O[C@@]1(C#Cc2cccc(C)c2)CCC[C@@H]2[C@H]1CCN2C(=O)OC` [Example 16, (3aR,4S,7aR)-4-Tetradecanoyloxy-4-m-tolylethynyl-octahydro-indole-1-carboxylic acid methyl ester] were less than 2 µg/mL, 26 µL/min/mg and 33 µL/min/mg.
